Columns and labels:
dopamine D-2 receptor = biological target: T1, dopamine D-2 receptor (Rattus norvegicus, UniProt P61169); assay: Dopamine D-2 receptor binding ([3H]-spiroperidol, homogenized limbic brain tissue)
T1 construct: from tissue; host or cells: homogenized limbic brain tissue
Method: High affinity for the dopamine D-2 receptor was established by the standard experimental test procedure of Fields et al., Brain Res., 136, 578 (1977) and Yamamura et al., eds. Neutrotransmitter Receptor Binding, Raven Press, N.Y. (1978) wherein homogenized limbic brain tissue is incubated with ^3 H-spiroperidol and various concentrations of test compound, filtered and washed and shaken with Hydrofluor scintillation cocktail (National Diagnostics) and counted in a Packard 460 CD scintillation counter.

[1] = biological target: T2, 5-HT1A serotonin receptor (Rattus norvegicus, UniProt P19327); assay: Serotonin 5-HT1A receptor binding (displacement of [3H]-8-OHDPAT); parameters: from tissue; details: [3H]-8-OHDPAT displacement
T2 sequence (P19327 1-422): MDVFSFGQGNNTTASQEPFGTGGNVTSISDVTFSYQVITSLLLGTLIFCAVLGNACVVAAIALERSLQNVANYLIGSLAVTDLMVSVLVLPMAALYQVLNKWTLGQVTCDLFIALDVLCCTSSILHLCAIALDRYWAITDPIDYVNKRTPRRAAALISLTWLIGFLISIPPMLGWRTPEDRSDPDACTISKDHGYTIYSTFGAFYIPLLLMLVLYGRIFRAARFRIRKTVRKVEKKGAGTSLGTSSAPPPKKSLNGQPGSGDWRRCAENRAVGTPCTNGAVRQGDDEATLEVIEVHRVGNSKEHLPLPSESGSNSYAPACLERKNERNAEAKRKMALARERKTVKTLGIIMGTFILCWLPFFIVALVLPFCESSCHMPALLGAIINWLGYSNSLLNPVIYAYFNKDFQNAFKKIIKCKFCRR
Text: High affinity for the serotonin 5-HT1A receptor was established by testing the claimed compounds ability to displace [^3 H]-8-OHDPAT (dipropylaminotetralin) from the 5-HT1A serotonin receptor following the procedure of Hall et al., J. Neurochem. 44, 1685 (1985). […] The anxiolytic activity of buspirone is believed to be, at least partially, due to its 5-HT1A receptor affinity (Vander Maclen et al., Eur. J. Pharmacol. 1986, 129 (1-2), 133-130.

[2] = biological target: T2, 5-HT1A serotonin receptor; details: standard for anxiolytic activity; cited from earlier work

T1 sequence (P61169 whole entry): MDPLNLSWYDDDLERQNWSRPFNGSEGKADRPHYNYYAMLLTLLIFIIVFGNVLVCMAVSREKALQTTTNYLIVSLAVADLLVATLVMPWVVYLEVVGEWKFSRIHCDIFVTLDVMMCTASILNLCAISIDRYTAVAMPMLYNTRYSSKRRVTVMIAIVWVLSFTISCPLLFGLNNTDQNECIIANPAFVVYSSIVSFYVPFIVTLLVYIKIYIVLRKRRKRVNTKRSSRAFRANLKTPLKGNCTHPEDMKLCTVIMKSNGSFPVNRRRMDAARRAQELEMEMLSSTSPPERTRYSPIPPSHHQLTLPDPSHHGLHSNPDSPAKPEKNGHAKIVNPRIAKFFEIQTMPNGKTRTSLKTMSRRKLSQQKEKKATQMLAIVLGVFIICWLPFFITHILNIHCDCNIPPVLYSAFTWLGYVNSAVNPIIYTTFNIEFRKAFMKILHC

SMILES | inhibition at 1 µM (dopamine D-2 receptor) | inhibition at 1 µM [1] | affinity for the 5-HT1A serotonin receptor subtype (in words) [2]
c1cnc(N2CCN(CCCOc3ccc4c(c3)CCC4)CC2)nc1 [Example 1] | 85% | 91% | 
Fc1ccc(C(c2ccc(F)cc2)N2CCN(CCCOc3ccc4c(c3)CCC4)CC2)cc1 [Example 2, 1-[4-[3-[(2,3-Dihydro-1H-indan-5-yl)oxy]propyl]-1-piperazinyl]bis(4-fluorophenyl)methane] |  | 43% | 
Clc1cncc(N2CCN(CCCOc3ccc4c(c3)CCC4)CC2)n1 [Example 3] | 82% | 48% | 
c1ccc2c(c1)OCC(CNCCCCOc1ccc3c(c1)CCC3)O2 (stereo not drawn) [Example 4, N-[4-[(2,3-Dihydro-1H-indan-5-yl)oxy]butyl]-2,3-dihydro-1,4-benzodioxan-2-methanamine] | 97% | 92% | 
c1ccc2c(c1)OCC(CNCCOc1ccc3c(c1)CCC3)O2 (stereo not drawn) [Example 5, N-[2-[(2,3-Dihydro-1H-indan-5-yl)oxy]ethyl]-2,3-dihydro-1,4-benzodioxan-2-methanamine] | 100% | 76% | 
c1ccc2c(c1)OCC(CNCCCOc1ccc3c(c1)CCC3)O2 (stereo not drawn) [Example 6, N-[3-[(2,3-Dihydro-1H-indan-5-yl)oxy]propyl]-2,3-dihydro-1,4-benzodioxan-2-methanamine] | 95% | 99% | 
O=C1CC2(CCCC2)CC(=O)N1CCCCN1CCN(c2ncccn2)CC1 [buspirone] |  |  | potent affinity
